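GI50 = concentration required for 50% inhibition of growth. At the TGI there is no net growth.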
Assays:
Assay in all cases: DTP human tumour cell line panel, 384-well format
786-0 renal = system: 786-0 renal
A498 renal = system: A498 renal
A549 NSCLC = system: A549 NSCLC
ACHN renal = system: ACHN renal
BT-549 breast = system: BT-549 breast
CAKI-1 renal = system: CAKI-1 renal
COLO 205 colon = system: COLO 205 colon
DU-145 prostate = system: DU-145 prostate
EKVX NSCLC = system: EKVX NSCLC
HCT-116 colon = system: HCT-116 colon
HCT-15 colon = system: HCT-15 colon
HL-60(TB) leukemia = system: HL-60(TB) leukemia
HOP-62 NSCLC = system: HOP-62 NSCLC
HOP-92 NSCLC = system: HOP-92 NSCLC
HS 578T breast = system: HS 578T breast
HT29 colon = system: HT29 colon
IGROV1 ovarian = system: IGROV1 ovarian
K-562 leukemia = system: K-562 leukemia
KM12 colon = system: KM12 colon
M14 melanoma = system: M14 melanoma
MALME-3M melanoma = system: MALME-3M melanoma
MCF7 breast = system: MCF7 breast
MDA-MB-231 breast = system: MDA-MB-231 breast
MDA-MB-435 melanoma = system: MDA-MB-435 melanoma
MDA-MB-468 breast = system: MDA-MB-468 breast
MOLT-4 leukemia = system: MOLT-4 leukemia
NCI-H226 lung = system: NCI-H226 lung
NCI-H23 lung = system: NCI-H23 lung
NCI-H322M lung = system: NCI-H322M lung
NCI-H460 NSCLC = system: NCI-H460 NSCLC
NCI-H522 lung = system: NCI-H522 lung
OVCAR-3 ovarian = system: OVCAR-3 ovarian
OVCAR-4 ovarian = system: OVCAR-4 ovarian
OVCAR-5 ovarian = system: OVCAR-5 ovarian
OVCAR-8 ovarian = system: OVCAR-8 ovarian
PC-3 prostate = system: PC-3 prostate
RXF 393 renal = system: RXF 393 renal
SF-268 CNS = system: SF-268 CNS
SF-295 CNS = system: SF-295 CNS
SF-539 CNS = system: SF-539 CNS
SK-MEL-2 melanoma = system: SK-MEL-2 melanoma
SK-MEL-28 melanoma = system: SK-MEL-28 melanoma
SK-MEL-5 melanoma = system: SK-MEL-5 melanoma
SK-OV-3 ovarian = system: SK-OV-3 ovarian
SN12C renal = system: SN12C renal
SNB-19 CNS = system: SNB-19 CNS
SNB-75 CNS = system: SNB-75 CNS
SR leukemia = system: SR leukemia
SW-620 colon = system: SW-620 colon
T-47D breast = system: T-47D breast
TK-10 renal = system: TK-10 renal
U251 glioblastoma = system: U251 glioblastoma
UACC-257 melanoma = system: UACC-257 melanoma
UACC-62 melanoma = system: UACC-62 melanoma
UO-31 renal = system: UO-31 renal

SMILES: CN[C@@H](C)C(=O)N[C@H](C(=O)N1CCC[C@H]1C(=O)Nc1sc(-c2ncco2)nc1-c1ccccc1)C1CCCCC1
- GI50 ([…]-0 renal): 6.69 µM
- TGI (786-0 renal): 19.9 µM
- GI50 (A498 renal): 5.13 µM
- TGI (A498 renal): 17.9 µM
- GI50 (A549 NSCLC): 11.6 µM
- TGI (A549 NSCLC): > 100 µM
- GI50 (ACHN renal): 4.35 µM
- TGI (ACHN renal): 17.2 µM
- GI50 (BT-549 breast): 0.234 µM
- TGI (BT-549 breast): 2.32 µM
- GI50 (CAKI-1 renal): 11.2 µM
- TGI (CAKI-1 renal): 23.3 µM
- GI50 (COLO 205 colon): 2.05 µM
- TGI (COLO 205 colon): 16 µM
- GI50 (DU-145 prostate): 1.03 µM
- TGI (DU-145 prostate): 10.5 µM
- GI50 (EKVX NSCLC): 10.7 µM
- TGI (EKVX NSCLC): 32.2 µM
- GI50 (HCT-116 colon): 0.43 µM
- TGI (HCT-116 colon): 14.3 µM
- GI50 (HCT-15 colon): 8.22 µM
- TGI (HCT-15 colon): 21.4 µM
- GI50 (HL-60(TB) leukemia): 0.0148 µM
- TGI (HL-60(TB) leukemia): 0.584 µM
- GI50 (HOP-62 NSCLC): 1.08 µM
- TGI (HOP-62 NSCLC): 2.68 µM
- GI50 (HOP-92 NSCLC): 9.99 µM
- TGI (HOP-92 NSCLC): 21.8 µM
- GI50 (HS 578T breast): 0.609 µM
- TGI (HS 578T breast): 15.4 µM
- GI50 (HT29 colon): 5.63 µM
- TGI (HT29 colon): 18.1 µM
- GI50 (IGROV1 ovarian): 10.5 µM
- TGI (IGROV1 ovarian): 24.5 µM
- GI50 (K-562 leukemia): 2.18 µM
- TGI (K-562 leukemia): 16.6 µM
- GI50 (KM12 colon): 1.21 µM
- TGI (KM12 colon): 10.5 µM
- GI50 (M14 melanoma): 8.12 µM
- TGI (M14 melanoma): 20.8 µM
- GI50 (MALME-3M melanoma): 0.0256 µM
- TGI (MALME-3M melanoma): 0.74 µM
- GI50 (MCF7 breast): 0.16 µM
- TGI (MCF7 breast): 1.18 µM
- GI50 (MDA-MB-231 breast): 0.14 µM
- TGI (MDA-MB-231 breast): 0.909 µM
- GI50 (MDA-MB-435 melanoma): 1.6 µM
- TGI (MDA-MB-435 melanoma): 13.5 µM
- GI50 (MDA-MB-468 breast): 0.476 µM
- TGI (MDA-MB-468 breast): 5.23 µM
- GI50 (MOLT-4 leukemia): 4.34 µM
- TGI (MOLT-4 leukemia): 14.9 µM
- GI50 (NCI-H226 lung): 5.52 µM
- TGI (NCI-H226 lung): 27.5 µM
- GI50 (NCI-H23 lung): 0.159 µM
- TGI (NCI-H23 lung): 1.28 µM
- GI50 (NCI-H322M lung): 13.5 µM
- TGI (NCI-H322M lung): 39.6 µM
- GI50 (NCI-H460 NSCLC): 7.4 µM
- TGI (NCI-H460 NSCLC): 21.3 µM
- GI50 (NCI-H522 lung): 0.0966 µM
- TGI (NCI-H522 lung): 1.08 µM
- GI50 (OVCAR-3 ovarian): 1.36 µM
- TGI (OVCAR-3 ovarian): 15.5 µM
- GI50 (OVCAR-4 ovarian): < 0.01 µM
- GI50 (OVCAR-5 ovarian): 10.7 µM
- TGI (OVCAR-5 ovarian): 34.2 µM
- GI50 (OVCAR-8 ovarian): 1.02 µM
- TGI (OVCAR-8 ovarian): 2.87 µM
- GI50 (PC-3 prostate): 6.22 µM
- TGI (PC-3 prostate): 19.8 µM
- GI50 (RXF 393 renal): < 0.01 µM
- TGI (RXF 393 renal): 0.0402 µM
- GI50 (SF-268 CNS): 10.4 µM
- TGI (SF-268 CNS): 22.3 µM
- GI50 (SF-295 CNS): 3.72 µM
- TGI (SF-295 CNS): 14.7 µM
- GI50 (SF-539 CNS): 3.44 µM
- TGI (SF-539 CNS): 17.3 µM
- GI50 (SK-MEL-2 melanoma): < 0.01 µM
- TGI (SK-MEL-2 melanoma): 1.04 µM
- GI50 (SK-MEL-28 melanoma): 2.64 µM
- TGI (SK-MEL-28 melanoma): 16.7 µM
- GI50 (SK-MEL-5 melanoma): 0.114 µM
- TGI (SK-MEL-5 melanoma): 1.38 µM
- GI50 (SK-OV-3 ovarian): < 0.01 µM
- TGI (SK-OV-3 ovarian): 0.064 µM
- GI50 (SN12C renal): 11 µM
- TGI (SN12C renal): 23.6 µM
- GI50 (SNB-19 CNS): 18.6 µM
- TGI (SNB-19 CNS): 61.4 µM
- GI50 (SNB-75 CNS): 2.52 µM
- TGI (SNB-75 CNS): 11.1 µM
- GI50 (SR leukemia): 0.182 µM
- TGI (SR leukemia): 0.592 µM
- GI50 (SW-620 colon): 3.66 µM
- TGI (SW-620 colon): 17.9 µM
- GI50 (T-47D breast): 16.7 µM
- TGI (T-47D breast): 30.5 µM
- GI50 (TK-10 renal): 11.3 µM
- TGI (TK-10 renal): 24.4 µM
- GI50 (U251 glioblastoma): 5.48 µM
- TGI (U251 glioblastoma): 19.3 µM
- GI50 (UACC-257 melanoma): 2.27 µM
- TGI (UACC-257 melanoma): 13.3 µM
- GI50 (UACC-62 melanoma): 0.781 µM
- TGI (UACC-62 melanoma): 10.9 µM
- GI50 (UO-31 renal): 15.9 µM
- TGI (UO-31 renal): 29.6 µM

Reference: PubChem BioAssay (NCI)
